#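 Grown in 96-well plates, cells were treated for 48 hours with each compound at five concentrations. Insufficient inhibition: endpoint recorded as highest concentration tested. GI50 is the concentration that inhibits growth by half.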 Active and inactive are the calls of the source. Cut-off read from the data, not from the text of the source: active = GI50 up to about 1.1 µM and inactive = higher.
# Legend:
# Test in all cases: NCI tumour cell line growth inhibition, 48 h
# HL-60 = tested on: HL-60
# IGROV-1 = tested on: IGROV-1
# SN12C = tested on: SN12C
# COLO 205 = tested on: COLO 205
# A498 = tested on: A498
# U-251 = tested on: U-251
# HOP-62 = tested on: HOP-62
# SF-268 = tested on: SF-268
# CCRF-CEM = tested on: CCRF-CEM
# HCT-15 = tested on: HCT-15
# LOX IMVI = tested on: LOX IMVI
# Malme-3M = tested on: Malme-3M
# SK-MEL-5 = tested on: SK-MEL-5
# UO-31 = tested on: UO-31
# KM12 = tested on: KM12
# OVCAR-3 = tested on: OVCAR-3
# RXF 393 = tested on: RXF 393
# MDA-MB-435 = tested on: MDA-MB-435
SMILES,GI50 (HL-60),GI50 (IGROV-1),GI50 (SN12C),GI50 (COLO 205),GI50 (A498),GI50 (U-251),GI50 (HOP-62),GI50 (SF-268),GI50 (CCRF-CEM),GI50 (HCT-15) [µM],GI50 (LOX IMVI),GI50 (Malme-3M),GI50 (SK-MEL-5),GI50 (UO-31),GI50 (KM12),GI50 (OVCAR-3),GI50 (RXF 393),GI50 (MDA-MB-435)
C/C(=N\NC(=S)NC(CCC(=O)O)C(=O)O)c1cnccn1 (stereo not drawn),> 100 µM (inactive),> 100 µM (inactive),> 100 µM (inactive),> 100 µM (inactive),> 100 µM (inactive),> 100 µM (inactive),> 100 µM (inactive),> 100 µM (inactive),> 100 µM (inactive),> 100,> 100 µM (inactive),> 100 µM (inactive),> 100 µM (inactive),> 100 µM (inactive),> 100 µM (inactive),> 100 µM (inactive),> 100 µM (inactive),–
Cc1ccc(S(=O)(=O)N/N=C(\CCN2CCCC2)CC(c2ccccc2)c2c(O)c3ccccc3oc2=O)cc1 (stereo not drawn),> 100 µM (inactive),> 100 µM (inactive),> 100 µM (inactive),–,> 100 µM (inactive),> 100 µM (inactive),> 100 µM (inactive),> 100 µM (inactive),95.5 µM (inactive),> 100,> 100 µM (inactive),> 100 µM (inactive),> 100 µM (inactive),> 100 µM (inactive),> 100 µM (inactive),> 100 µM (inactive),> 100 µM (inactive),–
C=CCN1C(=O)C/C(=C2/CCC(=O)N2CC=C)C1=O,> 100 µM (inactive),> 100 µM (inactive),> 100 µM (inactive),> 100 µM (inactive),> 100 µM (inactive),> 100 µM (inactive),88.7 µM (inactive),> 100 µM (inactive),> 100 µM (inactive),> 100,> 100 µM (inactive),> 100 µM (inactive),> 100 µM (inactive),> 100 µM (inactive),> 100 µM (inactive),> 100 µM (inactive),> 100 µM (inactive),–
O=C1C2=C(SCCS2)C(=O)c2ccccc21,2.31 µM (inactive),1.77 µM (inactive),1.95 µM (inactive),1.61 µM (inactive),2.03 µM (inactive),1.64 µM (inactive),1.56 µM (inactive),1.66 µM (inactive),0.783 µM (active),1.7,0.902 µM (active),1.81 µM (inactive),1.69 µM (inactive),1.93 µM (inactive),1.77 µM (inactive),1.71 µM (inactive),2.1 µM (inactive),–
CCOC(=O)NC(=O)c1cn(C2OC(COC(=O)CCCCCCCCC(=O)OCC3OC(n4cc(C(=O)NC(=O)OCC)c(=O)[nH]c4=O)C(O)C3O)C(O)C2O)c(=O)[nH]c1=O (stereo not drawn),> 100 µM (inactive),> 100 µM (inactive),> 100 µM (inactive),–,> 100 µM (inactive),–,> 100 µM (inactive),> 100 µM (inactive),> 100 µM (inactive),> 100,> 100 µM (inactive),> 100 µM (inactive),> 100 µM (inactive),> 100 µM (inactive),> 100 µM (inactive),> 100 µM (inactive),> 100 µM (inactive),–
COc1ccc(C(C#N)Cc2cc(OC)c(OC)c(OC)c2)cc1 (stereo not drawn),15 µM (inactive),31.9 µM (inactive),41.3 µM (inactive),19.2 µM (inactive),17.4 µM (inactive),29.6 µM (inactive),22.3 µM (inactive),49.2 µM (inactive),28.8 µM (inactive),17.8,28.6 µM (inactive),43.1 µM (inactive),17.6 µM (inactive),30.8 µM (inactive),24 µM (inactive),31.4 µM (inactive),16.4 µM (inactive),–
CSc1ccc(Cc2cc(C(C)(C)C)cc(C(C)(C)C)c2O)cc1,8.67 µM (inactive),13.8 µM (inactive),15.1 µM (inactive),–,15.6 µM (inactive),14.8 µM (inactive),20.6 µM (inactive),15.8 µM (inactive),15.5 µM (inactive),14,10.4 µM (inactive),15.2 µM (inactive),15.6 µM (inactive),17 µM (inactive),11 µM (inactive),–,13.3 µM (inactive),–
N#Cc1c(-c2ccccc2)cc(-c2ccc(N)cc2)[nH]c1=O,> 100 µM (inactive),> 100 µM (inactive),> 100 µM (inactive),> 100 µM (inactive),> 100 µM (inactive),> 100 µM (inactive),> 100 µM (inactive),> 100 µM (inactive),> 100 µM (inactive),> 100,> 100 µM (inactive),> 100 µM (inactive),> 100 µM (inactive),> 100 µM (inactive),> 100 µM (inactive),> 100 µM (inactive),> 100 µM (inactive),–
O=C1CCCC2=C1CC1=C(CCCC1=O)N2c1cccc2ccccc12,17 µM (inactive),> 100 µM (inactive),> 100 µM (inactive),–,> 100 µM (inactive),61 µM (inactive),–,45.1 µM (inactive),47.3 µM (inactive),66.7,> 100 µM (inactive),–,85.3 µM (inactive),> 100 µM (inactive),> 100 µM (inactive),> 100 µM (inactive),10.9 µM (inactive),–
O=C(N/N=C/c1cc(Br)ccc1O)N/N=C/c1cc(Br)ccc1O,1.25 µM (inactive),2.14 µM (inactive),5.35 µM (inactive),4.45 µM (inactive),> 100 µM (inactive),3.55 µM (inactive),4.46 µM (inactive),5.75 µM (inactive),1.4 µM (inactive),–,5.85 µM (inactive),3.64 µM (inactive),2.49 µM (inactive),0.64 µM (active),5.35 µM (inactive),–,> 100 µM (inactive),–
Cc1ccc(-c2c(C#N)c(-c3ccccc3)n(NS(=O)(=O)c3ccc(C)cc3)c(=O)c2C#N)cc1,–,36.7 µM (inactive),82.6 µM (inactive),> 100 µM (inactive),52.8 µM (inactive),49.5 µM (inactive),41.9 µM (inactive),90.8 µM (inactive),23 µM (inactive),36.4,26.7 µM (inactive),38.6 µM (inactive),19.2 µM (inactive),–,27.4 µM (inactive),–,51.5 µM (inactive),61.7 µM (inactive)
Cc1cccc2c(=O)cc(-c3ccccc3)[nH]c12,3.25 µM (inactive),7.26 µM (inactive),5.42 µM (inactive),4.36 µM (inactive),5.3 µM (inactive),21.9 µM (inactive),3.64 µM (inactive),8.15 µM (inactive),3.62 µM (inactive),4.23,4.58 µM (inactive),4.09 µM (inactive),2.36 µM (inactive),15.6 µM (inactive),–,3.31 µM (inactive),3.62 µM (inactive),–
CN1OC(CO)CC12C1CC3CC(C1)CC2C3 (stereo not drawn),> 100 µM (inactive),> 100 µM (inactive),> 100 µM (inactive),> 100 µM (inactive),> 100 µM (inactive),> 100 µM (inactive),> 100 µM (inactive),> 100 µM (inactive),> 100 µM (inactive),> 100,> 100 µM (inactive),> 100 µM (inactive),> 100 µM (inactive),> 100 µM (inactive),> 100 µM (inactive),> 100 µM (inactive),> 100 µM (inactive),–
C=CCN(N=O)C(=O)N(CCCCC(NC(C)=O)C(=O)NCc1ccccc1)Cc1ccccc1 (stereo not drawn),19.8 µM (inactive),> 100 µM (inactive),41.5 µM (inactive),23.8 µM (inactive),42.9 µM (inactive),42.5 µM (inactive),57.9 µM (inactive),41.9 µM (inactive),28.2 µM (inactive),39.9,21.7 µM (inactive),20.2 µM (inactive),15.5 µM (inactive),29.6 µM (inactive),31.6 µM (inactive),30.3 µM (inactive),21.7 µM (inactive),–
CC1CC(c2ccc(Cl)cc2)=Nc2ccccc2S1 (stereo not drawn),> 100 µM (inactive),> 100 µM (inactive),> 100 µM (inactive),> 100 µM (inactive),> 100 µM (inactive),> 100 µM (inactive),> 100 µM (inactive),> 100 µM (inactive),> 100 µM (inactive),> 100,–,> 100 µM (inactive),–,> 100 µM (inactive),> 100 µM (inactive),> 100 µM (inactive),> 100 µM (inactive),–
CCOC(=O)CCC(NC(=O)c1ccc(NC(OC)c2nc3cc(C(F)(F)F)ccc3nc2-c2ccccc2)cc1)C(=O)OCC (stereo not drawn),2.21 µM (inactive),15.7 µM (inactive),14.5 µM (inactive),16.5 µM (inactive),17.3 µM (inactive),15.6 µM (inactive),17 µM (inactive),16.6 µM (inactive),2.51 µM (inactive),14.3,10.4 µM (inactive),17 µM (inactive),16.3 µM (inactive),13.6 µM (inactive),6.24 µM (inactive),18.5 µM (inactive),13.9 µM (inactive),–
O=C1NC(=O)C2C(=O)NC(=O)C1C2(c1ccccc1)c1cc[nH]c1 (stereo not drawn),> 100 µM (inactive),> 100 µM (inactive),> 100 µM (inactive),> 100 µM (inactive),> 100 µM (inactive),–,> 100 µM (inactive),> 100 µM (inactive),> 100 µM (inactive),> 100,> 100 µM (inactive),> 100 µM (inactive),> 100 µM (inactive),74.6 µM (inactive),> 100 µM (inactive),> 100 µM (inactive),> 100 µM (inactive),–
